Experimental findings from PubChem BioAssay AID330 (DTP/NCI, 2004) are described below.

The assay has as its system P388 leukemia ip, CD2F1 mice, survival T/C. Put plainly: NCI In Vivo Anticancer Drug Screen. Data for tumor model P388 Leukemia (intraperitoneal) in CD2F1 (CDF1) mice. To be noted: endpoint: median survival time, higher = longer survival. The method, boiled down: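 Mice carrying the transplanted tumor received test compound or vehicle. Survival was recorded in each group, and the value is the treated-group measurement divided by that of the vehicle-treated control group.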

Where [1] appears, read: dose: 1.0 mg/kg/injection, schedule: Q01DX009 (ip), vehicle: saline.
Setting [2] is: dose: 50.0 mg/kg/injection, schedule: Q01DX009 (ip), vehicle: saline.
Setting [3] is: dose: 100.0 mg/kg/injection, schedule: Q01DX009 (ip), vehicle: saline.
[4] abbreviates: dose: 200.0 mg/kg/injection, schedule: Q01DX009 (ip), vehicle: saline.
Where [5] appears, read: dose: 50.0 mg/kg/injection, schedule: Q01DX009 (ip), vehicle: saline with Tween-80.

Toxic doses and inconclusive results are not listed.

Turning to `CC(C)(O)/C=C/C(=O)[C@](C)(O)[C@H]1[C@H](O)C[C@@]2(C)[C@@H]3CC=C4[C@@H](C[C@H](O)C(=O)C4(C)C)[C@]3(C)C(=O)C[C@]12C`, the T/C runs as follows: (dose: 0.25 mg/kg/injection, schedule: Q01DX009 (ip), vehicle: saline + Tween-80 + alcohol) 118 % of control; (dose: 0.25 mg/kg/injection, schedule: Q01DX009 (ip), vehicle: saline with Tween-80) 105 % of control; (dose: 0.25 mg/kg/injection, schedule: Q01DX009 (ip), vehicle: saline) 113 % of control; (dose: 0.5 mg/kg/injection, schedule: Q01DX009 (ip), vehicle: saline + Tween-80 + alcohol) 121 % of control; (dose: 0.5 mg/kg/injection, schedule: Q01DX009 (ip), vehicle: saline with Tween-80) 108 % of control; (dose: 0.5 mg/kg/injection, schedule: Q01DX009 (ip), vehicle: saline) 111 % of control. In addition, the T/C is, setting by setting: (dose: 0.5 mg/kg/injection, schedule: Q01DX010 (ip), vehicle: saline) 95 % of control; (dose: 0.96 mg/kg/injection, schedule: Q01DX009 (ip), vehicle: saline + Tween-80 + alcohol) 152 % of control; (dose: 0.96 mg/kg/injection, schedule: Q01DX009 (ip), vehicle: saline with Tween-80) 105 % of control; (dose: 1.0 mg/kg/injection, schedule: Q01DX009 (ip), vehicle: saline + Tween-80 + alcohol) 118 % of control; (dose: 1.0 mg/kg/injection, schedule: Q01DX009 (ip), vehicle: saline with Tween-80) 119 % of control; under setting [1], 111 % of control.

As to `CC1Cc2c([nH]c3ccccc3c2=O)O1` (stereo not drawn), the T/C is, setting by setting: under setting [2], 93 % of control; under setting [3], 101 % of control; under setting [4], 100 % of control.

Regarding `Cc1ccc(C(=O)CSC2=NCCN2)cc1Cl`, the T/C reads like this: (dose: 60.0 mg/kg/injection, schedule: Q01DX005 (ip), vehicle: saline with Tween-80) 106 % of control; (dose: 120.0 mg/kg/injection, schedule: Q01DX005 (ip), vehicle: saline with Tween-80) 100 % of control; (dose: 240.0 mg/kg/injection, schedule: Q01DX005 (ip), vehicle: saline with Tween-80) 97 % of control.

Consider `N#CC1OC1c1cccc[n+]1[O-]` (stereo not drawn), for which the T/C (dose: 6.25 mg/kg/injection, schedule: Q01DX005 (ip), vehicle: saline with Tween-80) is 98 % of control; the T/C (dose: 6.25 mg/kg/injection, schedule: Q01DX005 (ip), vehicle: saline) is 104 % of control; the T/C (dose: 12.5 mg/kg/injection, schedule: Q01DX005 (ip), vehicle: saline with Tween-80) was 98 % of control; the T/C (dose: 12.5 mg/kg/injection, schedule: Q01DX005 (ip), vehicle: saline) was 96 % of control; the T/C (dose: 25.0 mg/kg/injection, schedule: Q01DX005 (ip), vehicle: saline) is 102 % of control.

Regarding `CC[As](CC)SC1OC(COC(C)=O)C(OC(C)=O)C(OC(C)=O)C1OC(C)=O` (stereo not drawn), the T/C (dose: 50.0 mg/kg/injection, schedule: Q01DX009 (ip), vehicle: saline + alcohol) is 116 % of control; the T/C under setting [5] was 108 % of control; the T/C (dose: 100.0 mg/kg/injection, schedule: Q01DX009 (ip), vehicle: saline + alcohol) is 180 % of control; the T/C (dose: 100.0 mg/kg/injection, schedule: Q01DX009 (ip), vehicle: saline with Tween-80) is 115 % of control; the T/C (dose: 200.0 mg/kg/injection, schedule: Q01DX009 (ip), vehicle: saline + alcohol) is 181 % of control; the T/C (dose: 200.0 mg/kg/injection, schedule: Q01DX009 (ip), vehicle: saline with Tween-80) is 96 % of control. Also, for the setting “dose: 400.0 mg/kg/injection, schedule: Q01DX009 (ip), vehicle: saline with Tween-80”, the T/C was 102 % of control.

As to `O=c1[nH]c2cc([N+](=O)[O-])ccc2nc1/C=C(\O)c1ccncc1`, the T/C by setting is: (dose: 60.0 mg/kg/injection, schedule: Q01DX005 (ip), vehicle: Klucel + Tween-80) 94 % of control; (dose: 120.0 mg/kg/injection, schedule: Q01DX005 (ip), vehicle: Klucel + Tween-80) 88 % of control; (dose: 240.0 mg/kg/injection, schedule: Q01DX005 (ip), vehicle: Klucel + Tween-80) 100 % of control.

For the compound `CCOC(=O)C1Cc2nc(N)ncc2C1=O` (stereo not drawn), the T/C reads like this: (dose: 15.0 mg/kg/injection, schedule: Q01DX009 (ip), vehicle: saline with Tween-80) 96 % of control; (dose: 30.0 mg/kg/injection, schedule: Q01DX009 (ip), vehicle: saline with Tween-80) 107 % of control; (dose: 60.0 mg/kg/injection, schedule: Q01DX009 (ip), vehicle: saline with Tween-80) 114 % of control.

With `CC(=O)c1cccc(NC2C(N)C(NC(=O)N(C)C)(C(C)O)C(C)(O)C2(O)COC(=O)c2c(C)cccc2O)c1` (stereo not drawn), the T/C (dose: 0.5 mg/kg/injection, schedule: Q01DX009 (ip), vehicle: other) was 86 % of control; the T/C (dose: 1.0 mg/kg/injection, schedule: Q01DX009 (ip), vehicle: other) is 153 % of control; the T/C (dose: 1.5 mg/kg/injection, schedule: Q01DX009 (ip), vehicle: acid diluted with saline) was 86 % of control.

Regarding `CC/C=C\C/C=C\CC1(O)C=C(Cl)C(=O)C1C(OC(C)=O)C(OC(C)=O)C(CCCC(=O)OC)OC(C)=O` (stereo not drawn), the T/C was 103 % of control (dose: 2.25 mg/kg/injection, schedule: Q01DX005 (ip), vehicle: Klucel (hydroxypropylcellulose) (HPC)); 94 % of control (dose: 4.5 mg/kg/injection, schedule: Q01DX005 (ip), vehicle: Klucel (hydroxypropylcellulose) (HPC)); 100 % of control (dose: 9.0 mg/kg/injection, schedule: Q01DX005 (ip), vehicle: Klucel (hydroxypropylcellulose) (HPC)); 95 % of control (dose: 18.0 mg/kg/injection, schedule: Q01DX005 (ip), vehicle: Klucel (hydroxypropylcellulose) (HPC)); 95 % of control (dose: 36.0 mg/kg/injection, schedule: Q01DX005 (ip), vehicle: Klucel (hydroxypropylcellulose) (HPC)).

As to `CC(=O)OCc1cnccc1Cl`, the T/C is 100 % of control (dose: 100.0 mg/kg/injection, schedule: Q04DX002 (ip), vehicle: saline with Tween-80); 102 % of control (dose: 200.0 mg/kg/injection, schedule: Q04DX002 (ip), vehicle: saline with Tween-80); 94 % of control (dose: 400.0 mg/kg/injection, schedule: Q04DX002 (ip), vehicle: saline with Tween-80).

With `CC1(C)OC2(CC1C1(C)C=CC(=O)O1)CC1C(O)(CCC34CC13C(=O)OC4c1ccoc1)O2` (stereo not drawn), the T/C under setting [2] was 100 % of control, the T/C under setting [3] was 95 % of control and the T/C under setting [4] was 104 % of control.

As for `NC(=S)N/N=C\c1nccc2c(C(F)(F)F)cccc12`, the T/C is 91 % of control (dose: 1.5 mg/kg/injection, schedule: Q04DX003 (ip), vehicle: saline with Tween-80); 95 % of control (dose: 3.0 mg/kg/injection, schedule: Q04DX003 (ip), vehicle: saline with Tween-80); 99 % of control (dose: 6.0 mg/kg/injection, schedule: Q04DX003 (ip), vehicle: saline with Tween-80); 91 % of control (dose: 12.0 mg/kg/injection, schedule: Q04DX003 (ip), vehicle: saline with Tween-80).

With `CC(C)n1c2c([n+](C)c1/C=C/c1ccccc1)C(=O)c1ccccc1C2=O`, the T/C is 109 % of control (dose: 0.44 mg/kg/injection, schedule: Q01DX009 (ip), vehicle: saline); 116 % of control (dose: 0.66 mg/kg/injection, schedule: Q01DX009 (ip), vehicle: saline); 119 % of control under setting [1]; 112 % of control (dose: 1.5 mg/kg/injection, schedule: Q01DX009 (ip), vehicle: saline).

As to `O=c1[nH]c2nc3ccccc3n2c(=O)c2ccccc12`, the T/C runs as follows: (dose: 100.0 mg/kg/injection, schedule: Q01DX001 (ip), vehicle: Klucel (hydroxypropylcellulose) (HPC)) 98 % of control; (dose: 200.0 mg/kg/injection, schedule: Q01DX001 (ip), vehicle: Klucel (hydroxypropylcellulose) (HPC)) 98 % of control; (dose: 400.0 mg/kg/injection, schedule: Q01DX001 (ip), vehicle: Klucel (hydroxypropylcellulose) (HPC)) 95 % of control.

Turning to `CCc1cccc(CC)c1NC(=S)Nc1c(C)n(C)n(-c2ccccc2)c1=O`, the T/C reads like this: (dose: 50.0 mg/kg/injection, schedule: Q01DX009 (ip), vehicle: Klucel (hydroxypropylcellulose) (HPC)) 106 % of control; (dose: 100.0 mg/kg/injection, schedule: Q01DX009 (ip), vehicle: Klucel (hydroxypropylcellulose) (HPC)) 103 % of control; (dose: 200.0 mg/kg/injection, schedule: Q01DX009 (ip), vehicle: Klucel (hydroxypropylcellulose) (HPC)) 95 % of control.

In the case of `C=CCNC(=S)Nc1ccc(OC(=O)Nc2ccc(Cl)c(Cl)c2)cc1`, the T/C was 102 % of control (dose: 6.25 mg/kg/injection, schedule: Q01DX009 (ip), vehicle: saline with Tween-80); 96 % of control (dose: 12.5 mg/kg/injection, schedule: Q01DX009 (ip), vehicle: saline with Tween-80); 104 % of control (dose: 25.0 mg/kg/injection, schedule: Q01DX009 (ip), vehicle: saline with Tween-80); 98 % of control under setting [5].
